Measurements as given in publication PMC8894159, “Paltusotine, a novel oral once-daily nonpeptide SST2 receptor agonist, suppresses GH and IGF-1 in healthy volunteers” (Pituitary, 2022).

Experiments:
[1] = Safety and tolerability, single-dose cohorts; assay type: in vivo, human
Protocol: Adverse events and concomitant medications were recorded. Laboratory samples for clinical chemistry, hematology, coagulation tests, and urinalysis were collected under fasted conditions. Participants who discontinued prematurely attended an early termination visit.
For the safety analysis, adverse events were coded using the Medical Dictionary for Regulatory Activities (MedDRA® Version 20.0). Adverse events were grouped by preferred terms. Treatment-emergent adverse events (TEAEs) were summarized with descriptive statistics.

[2] = system: GHRH-stimulated GH secretion; assay: GHRH challenge: suppression of GHRH-stimulated GH secretion, single-dose cohorts; assay type: in vivo, human
Protocol: To assess the ability of paltusotine to suppress GHRH-stimulated GH secretion, a GHRH challenge was performed in single-dose cohorts S1, S2, S3, S4, and S5 (oral solution) (Fig. 1). Recombinant human GHRH(1-44)-NH2 (somatorelin; Ferring Pharmaceuticals, Parsippany, NJ) 50 µg was administered intravenously 2 h after paltusotine (or placebo) on Day 1 and at approximately the same time on Day -1 (± 10 min). A blood sample for serum GH was collected at − 60 min, − 30 min, immediately before GHRH challenge, and at 15, 30, 45, 60, 90, and 120 min post-challenge. Serum GH was also assessed in the M1 cohort. Serum GH sample was collected on Day - 1, on Days 1 and 7 (pre-dose, 0.5, 1, 2, 3, 4, 6, 8, 10, 12 and 18 h post-dose), Days 2–6 (pre-dose and 12 h post-dose), and Days 8, 10 and 14 (at approximately the same time as dosing).
Serum was isolated, stored, and analyzed for IGF-1 and GH according to the instructions from the manufacturer (IGF-1 and human GH diagnostic assay, Siemens Immulite® 1000 systems).
The study endpoints were effects of paltusotine on GHRH-stimulated GH and IGF-1 (pharmacodynamics), pharmacokinetics (including formulation and food effects), safety, and tolerability. For the analysis of effects paltusotine on GHRH-stimulated GH and IGF-1, the pharmacodynamic population included all randomized participants in the 1.25 mg, 2.5 mg, 5 mg, 10 mg, and 20 mg (S1, S2, S3, S4A, and S5) single-dose cohorts who received any amount of study drug and had at least one post-baseline pharmacodynamic assessment. The percent change in serum GH area under the curve (AUC) from 0 to 2 h (AUC0-2) from baseline was compared using ANOVA between each dosing cohort and all participants who received placebo. The single-dose pharmacodynamic population included 39 participants from the S1, S2, S3, S4, and S5 cohorts (paltusotine n = 29; placebo n = 10). […] For multiple-dose cohorts, only participants who received all doses were included. A change in IGF-1 levels 12 h post last dose from baseline (average of 3–4 measurements) were compared by ANOVA between each dosing cohort and all participants who received placebo. The multiple-dose pharmacodynamic population included 31 participants from the M1, M2, M3, and M4 cohorts (paltusotine n = 21; placebo n = 10).

[3] = single-dosing, safety population N = 41
[4] = plasma concentration-response model, 1.25-20 mg single doses

Cl.N#Cc1cccc(-c2ccc3ncc(-c4cc(F)cc(F)c4)c(N4CCC(N)CC4)c3c2)c1O [paltusotine, 3-[4-(4-Aminopiperidin-1-yl)-3-(3,5-difluorophenyl)quinolin-6-yl]-2-hydroxybenzonitrile hydrochloride]
life-threatening events or deaths ([1]; all cohorts): No life-threatening events or deaths occurred
tolerability ([1]; single-dose administration): well tolerated
share of TEAEs occurring at a dose level of 10 mg or higher ([1]; single-dose cohorts): 64%
Abdominal distension (TEAE) [1, 3]: 2 (4.9%) n (%)
Abdominal pain (TEAE) [1, 3]: 2 (4.9%) n (%)
Abdominal pain upper (TEAE) [1, 3]: 2 (4.9%) n (%)
Back pain (TEAE) [1, 3]: 2 (4.9%) n (%)
Fatigue (TEAE) [1, 3]: 2 (4.9%) n (%)
Headache (TEAE) [1, 3]: 5 n (%)
Hypoesthesia (TEAE) [1, 3]: 2 (4.9%) n (%)
Nausea (TEAE) [1, 3]: 2 (4.9%) n (%)
Participants with at least 1 TEAE [1, 3]: 28 (68.3%) n (%)
Tension headache (TEAE) [1, 3]: 2 (4.9%) n (%)
Ventricular tachycardia (non-sustained) (TEAE) [1, 3]: 2 (4.9%) n (%)
Headache (TEAE) ([1]; single-dosing, safety population N = 41, listed as Paltusotine): 5 (12.2%) n (%)
mean peak GH concentration after GHRH challenge ([2]; 10 mg single dose, Day 1, GHRH alone on Day -1 gave 21 ng/mL): 1.7 ng/mL
suppression of stimulated GH AUC0-2 h ([2]; 10 mg single dose, placebo 15%): 91%
EC50 ([2]; Homo sapiens, read-out: paltusotine concentration for 50% GH suppression (EC50), plasma concentration-response model, 1.25-20 mg single doses): ~7.9 ng/mL
paltusotine concentration for 50% GH suppression (EC50) [2, 4]: 7.9 ng/mL
paltusotine concentration for 80% GH suppression (EC80) [2, 4]: ~29 ng/mL
